The record followed here is patent US20090137572A1, “2-substituted-4-heteroaryl-pyrimidines useful for the treatment of proliferative disorders” (priority 2004, published 2009).

pIC50: −log10 of the molar value. Where two headings read alike, the source gives them in different places. A value given as a limit tells only on which side of the number the result lay.

Common to all, as to format: biochemical
The target in one assay is CDK1-cyclin B (Homo sapiens, UniProt P06493). Description: Kinase assay (radioactive phosphate incorporation), CDK1-cyclin B. Conditions: read-out: Kinase Inhibition pIC50 CDK1-cyclin B (converted). In a few lines: (§1)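 Radiometric filter-binding format: recombinant kinase + substrate, pH 7.4 MOPS buffer with EGTA, DTT, vanadate; 100 μM ATP/[γ-32P]-ATP, 15 mM MgCl2; 30° C; stopped on ice, P81 or GF/C filtration, scintillation read.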
CDK1-cyclin B, sequence (P06493 whole entry): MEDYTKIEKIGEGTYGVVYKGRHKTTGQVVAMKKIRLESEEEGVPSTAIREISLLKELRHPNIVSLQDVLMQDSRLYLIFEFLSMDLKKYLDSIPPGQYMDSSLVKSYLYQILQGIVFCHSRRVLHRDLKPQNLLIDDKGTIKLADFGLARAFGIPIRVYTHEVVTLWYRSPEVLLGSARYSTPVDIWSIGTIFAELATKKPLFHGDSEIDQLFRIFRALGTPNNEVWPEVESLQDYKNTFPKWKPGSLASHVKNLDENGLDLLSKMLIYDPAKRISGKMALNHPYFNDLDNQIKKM
CDK1-cyclin B, sequence (P14635 whole entry partner): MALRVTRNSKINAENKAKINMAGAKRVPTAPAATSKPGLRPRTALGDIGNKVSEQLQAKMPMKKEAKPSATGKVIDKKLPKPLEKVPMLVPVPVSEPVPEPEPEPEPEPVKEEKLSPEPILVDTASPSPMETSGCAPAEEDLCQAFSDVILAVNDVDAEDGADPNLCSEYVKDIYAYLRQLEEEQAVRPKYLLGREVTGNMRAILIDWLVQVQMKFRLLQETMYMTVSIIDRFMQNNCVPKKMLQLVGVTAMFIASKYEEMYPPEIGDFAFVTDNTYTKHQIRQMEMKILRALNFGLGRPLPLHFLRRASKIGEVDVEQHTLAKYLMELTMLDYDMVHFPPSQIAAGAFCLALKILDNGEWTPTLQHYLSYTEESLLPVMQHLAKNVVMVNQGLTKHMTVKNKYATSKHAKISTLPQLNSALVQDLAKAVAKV

The target of a further assay is CDK2-cyclin A (Homo sapiens, UniProt P24941). The experiment in a line: Kinase assay (radioactive phosphate incorporation), CDK2-cyclin A. The note with it: read-out: Kinase Inhibition pIC50 CDK2-cyclin A (converted). A digest of the protocol:
as §1

Another assay deals with CDK9/cyclin T1 (Homo sapiens, UniProt P50750). Description: CDK 9 assay (CTD peptide substrate). The note with it: read-out: Kinase Inhibition pIC50 CDK9-cyclin T1 (converted). A digest of the protocol: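 Test compounds were incubated with recombinant human kinase/cyclin complex and CTD peptide substrate for 45 min at 30° C (pH 7.2, 100 μM ATP spiked with 32PγATP, 15 mM MgCl2). Reactions were stopped on ice, avidin was added, and phosphorylated peptide was captured on P81 filters and counted by scintillation.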
CDK9/cyclin T1, sequence (P50750 whole entry): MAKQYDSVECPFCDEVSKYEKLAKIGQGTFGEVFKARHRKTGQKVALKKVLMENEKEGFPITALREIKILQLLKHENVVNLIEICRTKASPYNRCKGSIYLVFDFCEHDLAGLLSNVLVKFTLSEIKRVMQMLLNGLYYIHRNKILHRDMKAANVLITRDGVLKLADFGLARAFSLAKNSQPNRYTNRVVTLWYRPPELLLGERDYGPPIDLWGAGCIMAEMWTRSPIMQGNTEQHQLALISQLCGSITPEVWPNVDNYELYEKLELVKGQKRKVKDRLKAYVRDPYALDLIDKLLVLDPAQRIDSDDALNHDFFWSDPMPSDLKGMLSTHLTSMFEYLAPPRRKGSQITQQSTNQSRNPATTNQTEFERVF
CDK9/cyclin T1, sequence (O60563 whole entry partner): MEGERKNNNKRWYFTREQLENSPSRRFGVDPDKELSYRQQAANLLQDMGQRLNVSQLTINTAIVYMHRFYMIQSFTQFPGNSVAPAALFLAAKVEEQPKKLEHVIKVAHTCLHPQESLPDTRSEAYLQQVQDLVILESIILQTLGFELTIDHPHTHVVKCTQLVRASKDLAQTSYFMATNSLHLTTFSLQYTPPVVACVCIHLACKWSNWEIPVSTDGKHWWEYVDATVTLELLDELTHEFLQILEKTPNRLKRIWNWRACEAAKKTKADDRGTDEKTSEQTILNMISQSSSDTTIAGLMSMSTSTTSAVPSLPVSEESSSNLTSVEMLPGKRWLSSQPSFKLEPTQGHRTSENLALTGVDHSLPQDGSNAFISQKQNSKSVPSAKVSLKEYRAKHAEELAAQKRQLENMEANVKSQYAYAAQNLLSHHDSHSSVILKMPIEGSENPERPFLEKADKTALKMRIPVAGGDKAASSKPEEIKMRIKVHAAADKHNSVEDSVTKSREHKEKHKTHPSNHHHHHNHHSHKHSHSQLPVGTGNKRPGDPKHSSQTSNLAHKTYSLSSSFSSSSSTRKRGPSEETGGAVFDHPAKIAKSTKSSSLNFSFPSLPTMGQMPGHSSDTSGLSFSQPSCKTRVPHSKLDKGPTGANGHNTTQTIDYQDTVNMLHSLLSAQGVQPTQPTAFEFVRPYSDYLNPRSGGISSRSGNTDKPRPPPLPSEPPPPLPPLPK

In the next assay the target is T1, Aurora A kinase (Homo sapiens, UniProt O14965).
T1 construct: purchased
T1 sequence (O14965 1-403): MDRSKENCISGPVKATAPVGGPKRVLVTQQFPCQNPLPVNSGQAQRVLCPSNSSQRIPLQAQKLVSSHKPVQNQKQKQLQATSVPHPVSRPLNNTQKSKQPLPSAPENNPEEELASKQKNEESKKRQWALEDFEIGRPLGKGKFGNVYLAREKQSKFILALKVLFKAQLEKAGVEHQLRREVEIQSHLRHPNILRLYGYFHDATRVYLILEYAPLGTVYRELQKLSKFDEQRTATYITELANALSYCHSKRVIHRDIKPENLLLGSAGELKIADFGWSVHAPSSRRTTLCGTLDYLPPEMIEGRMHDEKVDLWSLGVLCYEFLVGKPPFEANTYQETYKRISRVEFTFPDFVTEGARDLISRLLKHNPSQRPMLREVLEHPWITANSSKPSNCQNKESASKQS
Description: Aurora-A (human) kinase assay (Kemptide substrate). The note with it: pIC50 is -log(IC50, M); 15 μM ATP; read-out: Kinase Inhibition pIC50 Aurora A kinase (converted). A digest of the protocol:
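Radiometric filter-binding assay: commercial aurora-A kinase (5-10 ng) with 200 μM Kemptide in MOPS/EDTA pH 7.0, started with 10 mM Mg acetate and 15 μM ATP plus [γ-33P]-ATP. Incubated 40 min at room temperature, stopped with phosphoric acid, incorporated 33P counted by scintillation.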

In assay [1] the target is T2, protein kinases (panel of Table 4) (Homo sapiens, UniProt P11802).
T2 construct: other: kinase CDK4D1; ATP 100 μM
T2 sequence (P11802 whole entry): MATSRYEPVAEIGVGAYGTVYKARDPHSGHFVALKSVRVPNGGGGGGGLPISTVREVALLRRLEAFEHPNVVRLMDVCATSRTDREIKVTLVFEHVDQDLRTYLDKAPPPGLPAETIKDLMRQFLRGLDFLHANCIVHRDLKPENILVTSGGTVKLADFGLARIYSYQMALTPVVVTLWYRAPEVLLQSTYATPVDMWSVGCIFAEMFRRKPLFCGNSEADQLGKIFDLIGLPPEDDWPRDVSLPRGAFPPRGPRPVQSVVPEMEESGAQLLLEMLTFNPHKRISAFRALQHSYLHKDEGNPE
The experiment in a line: Kinase selectivity profile, kinase inhibition IC50 (Table 4), ATP 100 μM. Conditions: kinase CDK4D1. The protocol: (§2) For the assays shown in Table 3, the kinases were assayed at the following ATP concentrations: SAPK4, PKBΔph, GSK3b, SAPK3, CK2, MKK1, PIM2, IKKB, ERK8, and PRK2 at 5 μM; JNK, PRAK, ROCK-II, SAPK2b, CDK2, CHK1, MSK1, CSK, P70S6K, PKA, CK1, MAPKAP-K2, SGK, PKCa, PDK1, NEK 7, and MAPKAP-K3 at 20 μM; SAPK2a, LCK, AMPK, MAPK2, DYRK1a, MAPKAP-K1a, NEK-6, NEK2a, PBK, CAMK-1, SRPK-1, JNK3, MNK2, RSK2, MNK1, PKBB, and SmMLCK at 50 μM. For the assays in Table 4 the ATP concentration was 100 μM throughout.

The target in assay [2] is T3, protein kinases (panel of Table 4) (Homo sapiens, UniProt P24941).
T3 construct: other: kinase CDK2A; ATP 100 μM; other: kinase CDK2E
The description is as above. The protocol:
as §2

The target in assay [3] is T4, protein kinases (panel of Table 4) (Homo sapiens, UniProt P35968).
T4 construct: other: kinase VEGFR2; ATP 100 μM
T4 sequence (P35968 whole entry): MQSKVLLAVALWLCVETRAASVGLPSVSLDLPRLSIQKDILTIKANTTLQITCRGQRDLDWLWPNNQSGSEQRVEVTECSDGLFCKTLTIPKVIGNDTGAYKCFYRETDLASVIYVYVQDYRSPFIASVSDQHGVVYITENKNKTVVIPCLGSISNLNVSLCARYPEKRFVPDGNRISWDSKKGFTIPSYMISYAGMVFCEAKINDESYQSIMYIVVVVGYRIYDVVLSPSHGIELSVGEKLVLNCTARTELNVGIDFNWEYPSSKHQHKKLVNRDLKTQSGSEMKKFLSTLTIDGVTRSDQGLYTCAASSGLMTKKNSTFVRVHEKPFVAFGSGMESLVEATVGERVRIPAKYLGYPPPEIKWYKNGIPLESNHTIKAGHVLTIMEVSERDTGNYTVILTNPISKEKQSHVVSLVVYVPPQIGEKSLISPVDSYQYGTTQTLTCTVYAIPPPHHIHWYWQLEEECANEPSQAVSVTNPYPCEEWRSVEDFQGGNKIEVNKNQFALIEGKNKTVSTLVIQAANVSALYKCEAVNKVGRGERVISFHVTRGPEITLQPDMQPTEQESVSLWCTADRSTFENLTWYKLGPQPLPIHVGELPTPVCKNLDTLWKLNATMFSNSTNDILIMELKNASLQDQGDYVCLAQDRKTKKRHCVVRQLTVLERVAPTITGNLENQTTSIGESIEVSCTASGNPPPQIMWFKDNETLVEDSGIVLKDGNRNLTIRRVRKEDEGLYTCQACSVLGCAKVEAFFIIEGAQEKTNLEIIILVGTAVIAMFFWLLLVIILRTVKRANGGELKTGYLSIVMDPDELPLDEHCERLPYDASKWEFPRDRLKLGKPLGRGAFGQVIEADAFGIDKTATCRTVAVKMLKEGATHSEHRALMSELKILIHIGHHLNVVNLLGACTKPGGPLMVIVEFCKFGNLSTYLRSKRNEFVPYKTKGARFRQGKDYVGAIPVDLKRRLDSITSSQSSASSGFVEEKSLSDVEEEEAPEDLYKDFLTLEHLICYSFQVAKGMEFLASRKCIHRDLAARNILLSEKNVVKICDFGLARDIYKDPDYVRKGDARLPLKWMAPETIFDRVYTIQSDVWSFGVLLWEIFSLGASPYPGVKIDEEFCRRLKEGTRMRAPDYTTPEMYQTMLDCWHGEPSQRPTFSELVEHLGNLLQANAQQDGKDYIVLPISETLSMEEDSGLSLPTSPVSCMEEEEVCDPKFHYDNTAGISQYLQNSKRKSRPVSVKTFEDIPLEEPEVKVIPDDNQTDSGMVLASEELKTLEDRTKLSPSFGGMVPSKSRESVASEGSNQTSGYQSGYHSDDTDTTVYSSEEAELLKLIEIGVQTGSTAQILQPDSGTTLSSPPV
The assay is described as above. Conditions: kinase VEGFR2. The protocol: as §2

Assay [4] has as its target T5, protein kinases (panel of Table 4) (Homo sapiens, UniProt P49841).
T5 construct: other: kinase GSK3b; ATP 100 μM
Described as above. Conditions: kinase GSK3b. The protocol: as §2

[5] abbreviates: kinase CDK2A, read-out: Kinase inhibition IC50, CDK2A.
[6] abbreviates: kinase CDK2E, read-out: Kinase inhibition IC50, CDK2E.

T5 sequence (P49841 whole entry): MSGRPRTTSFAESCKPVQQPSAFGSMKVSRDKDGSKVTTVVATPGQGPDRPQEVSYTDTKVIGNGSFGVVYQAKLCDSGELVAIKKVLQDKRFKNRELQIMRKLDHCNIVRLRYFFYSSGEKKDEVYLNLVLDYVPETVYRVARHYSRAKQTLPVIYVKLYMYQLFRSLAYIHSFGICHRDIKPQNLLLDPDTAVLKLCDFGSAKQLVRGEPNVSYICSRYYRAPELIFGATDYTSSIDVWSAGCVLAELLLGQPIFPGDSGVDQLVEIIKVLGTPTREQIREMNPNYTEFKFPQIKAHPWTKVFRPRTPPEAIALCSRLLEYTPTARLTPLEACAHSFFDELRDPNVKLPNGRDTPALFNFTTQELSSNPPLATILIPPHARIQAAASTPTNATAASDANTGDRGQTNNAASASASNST

Take `CNc1nc(C)c(-c2ccnc(Nc3cccc(S(C)(=O)=O)c3)n2)s1` [Compound 27, (3-Methanesulfonyl-phenyl)-[4-(4-methyl-2-methylamino-thiazol-5-yl)-pyrimidin-2-yl]-amine]: the IC50 on CDK1-cyclin B is 0.251 µM; on CDK2-cyclin A it was 0.00631 µM; at CDK9/cyclin T1, 0.001 µM; at Aurora A kinase, 0.316 µM. The pIC50 in assay [1] is 6.74; in assay [2] (setting [5]), 8.15; in assay [2] (setting [6]) it was 8.52; in assay [3], 7.36; in assay [4] it was 7.03.
In the case of `CNc1nc(C)c(-c2ccnc(Nc3ccc(C)c(S(=O)(=O)N4CCOCC4)c3)n2)s1` [Compound 37, [4-(4-Methyl-2-methylamino-thiazol-5-yl)-pyrimidin-2-yl]-[4-methyl-3-(morpholine-4-sulfonyl)-phenyl]-amine], the IC50 on Aurora A kinase is 1 µM. Further, the pIC50 in assay [1] was < 5.00; in assay [2] (setting [5]), < 5.00; in assay [2] (setting [6]), 5.52; in assay [3], 6.41; in assay [4], 5.74.
As for `CNc1nc(C)c(-c2ccnc(Nc3cccc(S(N)(=O)=O)c3)n2)s1` [Compound 19, 3-[4-(4-Methyl-2-methylamino-thiazol-5-yl)-pyrimidin-2-ylamino]-benzenesulfonamide], the results for the IC50 at CDK1-cyclin B, at CDK9/cyclin T1 and at Aurora A kinase were 0.2 µM, 0.00251 µM and 0.0398 µM, respectively. For the same compound, the pIC50 in assay [1] is 7.77; in assay [3], 7.44; in assay [4], 6.77.
Turning to `CCNc1nc(C)c(-c2ccnc(Nc3ccc(N4CCNCC4)cc3)n2)s1` [Compound 59, [4-(2-Ethylamino-4-methyl-thiazol-5-yl)-pyrimidin-2-yl]-(4-piperazin-1-yl-phenyl)-amine], the IC50 was 1 µM on CDK1-cyclin B, 0.501 µM on CDK2-cyclin A, 0.1 µM on CDK9/cyclin T1 and 0.0794 µM on Aurora A kinase. The pIC50 was 7.34 in assay [1]; 6.20 in assay [2] (setting [5]); 6.82 in assay [2] (setting [6]); 7.34 in assay [3]; < 5.00 in assay [4].
`Cc1ccc(Nc2nccc(-c3sc(N)nc3C)n2)cc1S(=O)(=O)N1CCOCC1` [Compound 38, [4-(2-Amino-4-methyl-thiazol-5-yl)-pyrimidin-2-yl]-[4-methyl-3-(morpholine-4-sulfonyl)-phenyl]-amine]: the IC50 is 0.0251 µM on CDK9/cyclin T1 and 0.501 µM on Aurora A kinase. In addition, the pIC50 is < 5.00 in assay [1], < 5.00 in assay [2] (setting [5]), < 5.00 in assay [2] (setting [6]) and 5.66 in assay [4].
As for `Cc1nc(CS(=O)(=O)c2cccs2)sc1-c1ccnc(Nc2ccc(N3CCOCC3)cc2)n1` [Compound 138, {4-[4-Methyl-2-(thiophene-2-sulfonylmethyl)-thiazol-5-yl]-pyrimidin-2-yl}-(4-morpholin-4-yl-phenyl)-amine], on Aurora A kinase, the IC50 was 0.0501 µM.
As for `COCCNS(=O)(=O)c1cccc(Nc2nccc(-c3sc(N)nc3C)n2)c1` [Compound 55, 3-[4-(2-Amino-4-methyl-thiazol-5-yl)-pyrimidin-2-ylamino]-N-(2-methoxy-ethyl)-benzenesulfonamide], the IC50 at CDK1-cyclin B was 3.16 µM; at CDK2-cyclin A, 2 µM; on CDK9/cyclin T1, 0.0316 µM; at Aurora A kinase it was 0.158 µM. In addition, the pIC50 in assay [1] was 5.80; in assay [2] (setting [5]), 5.68; in assay [2] (setting [6]), 6.57; in assay [3], 6.62; in assay [4], 6.35.
